The results in this text go back to US20240000765A1, “COMBINATION TREATMENT OF LIVER DISORDERS” (Terns Pharmaceuticals, Inc., priority 2020, published 2024).

Series [1] addresses T1, THRβ (Homo sapiens, UniProt P10828).
T1 sequence (P10828 1-461): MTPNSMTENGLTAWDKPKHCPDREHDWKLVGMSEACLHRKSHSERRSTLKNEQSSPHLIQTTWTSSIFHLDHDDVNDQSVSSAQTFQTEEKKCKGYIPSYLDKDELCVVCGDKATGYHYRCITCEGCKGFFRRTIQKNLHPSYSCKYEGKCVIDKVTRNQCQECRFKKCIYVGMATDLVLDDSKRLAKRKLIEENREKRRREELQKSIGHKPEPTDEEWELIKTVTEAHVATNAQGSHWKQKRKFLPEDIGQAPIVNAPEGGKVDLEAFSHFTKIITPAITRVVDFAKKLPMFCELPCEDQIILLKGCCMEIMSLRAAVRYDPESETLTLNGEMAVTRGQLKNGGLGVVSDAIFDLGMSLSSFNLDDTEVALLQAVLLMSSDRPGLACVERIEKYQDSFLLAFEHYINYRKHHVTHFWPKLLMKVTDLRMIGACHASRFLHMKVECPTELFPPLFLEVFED
The series can be described thus: Binding activity to the thyroxine receptor beta. Conditions: ratio of binding IC50.

Series [2] relates to mouse NASH model. Nature of the series: Mouse NASH model (high fat diet + CCl4), Compound 2. In kind it is in vivo, C57BL/6J mice. How it is done: C57BL/6J mice were fed a high fat diet for 10 weeks to induce obesity (>38 g BW). Obese mice were injected intraperitoneally (i.p.) twice a week for four weeks with 0.5 μl/g 25% CCl4 (formulated in olive oil) to induce fibrosis, and one group of normal BW mice were injected i.p. twice a week for four weeks with olive oil to serve as a healthy control. During the same dosing period, obese mice were fed orally once a day for 28 days with vehicle or varying doses of Compound 2. On CCl4 dosing days, CCl4 was administered at 4 hours post compound or vehicle dosing. On day 27, all animals were fasted for about 16 hours before terminal euthanasia. On day 28, all animals were sacrificed and various biological parameters were analyzed. Total body, liver, heart and brain weight were measured and changes in liver and heart weight were normalized using brain weight. […] Liver tissue histology was analyzed for effects of Compound 2 on steatosis, inflammation and fibrosis. […] Liver samples were collected for whole transcriptome analysis by RNA sequencing (RNAseq). RNAseq library (n=5 per group) preparation and sequencing was performed using Illumina standard protocols. Alignment of sequencing reads was performed using STAR aligner software and read counts were estimated using RSEM. Differentially expressed genes (compared to vehicle-treated NASH control mice) were determined using EdgeR software. Gene ontology analysis was performed using Advaita software with fold-change and adjusted p-value cutoffs of >1.5 and <0.05, respectively. Gene ontologies were derived from the Gene Ontology Consortium database (2019 Apr. 26) (Ashbumer et al., Gene ontology: Tool for the unification of biology. Nature Genetics 25(1): 25-9 (2000); Gene Ontology Consortium, Creating the Gene Ontology Resource: Design and Implementation. Genome Research 11: 1425-1433 (2001)).

In series [3] the target is T2, THRα (Homo sapiens, UniProt P10827).
T2 sequence (P10827 1-410 isoform P10827-2): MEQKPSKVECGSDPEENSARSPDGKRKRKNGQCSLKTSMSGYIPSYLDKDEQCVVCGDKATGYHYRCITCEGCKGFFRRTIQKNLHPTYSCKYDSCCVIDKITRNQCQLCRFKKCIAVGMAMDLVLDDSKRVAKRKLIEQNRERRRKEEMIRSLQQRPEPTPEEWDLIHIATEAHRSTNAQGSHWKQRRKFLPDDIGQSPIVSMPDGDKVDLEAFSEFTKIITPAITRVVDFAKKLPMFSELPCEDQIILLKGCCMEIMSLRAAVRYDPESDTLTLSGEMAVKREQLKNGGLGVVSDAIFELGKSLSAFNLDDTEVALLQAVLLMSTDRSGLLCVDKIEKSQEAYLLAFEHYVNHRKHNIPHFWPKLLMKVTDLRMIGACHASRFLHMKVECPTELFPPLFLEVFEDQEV
The series can be described thus: Binding activity to THRα. Conditions: read-out: IC50 THRα binding force.

In series [4] the target is T2, THRα. Nature of the series: Agonistic activity toward THRα. In kind it is biochemical.
Series [5] can be described thus: Pharmacokinetic evaluation in rats, intragastric infusion. In kind it is in vivo. Conditions: SD rats, intragastric 2 mg/kg.
Description: Drug Preparation: a certain amount of the drug was taken and added into a 2% Klucel LF+0.1% Tween 80 aqueous solution, to prepare a clear solution or a uniform suspension.
Dosage: SD rats were fasted overnight and given the drug by intragastric infusion at an administrated dose of 2 mg/kg and an administrated volume of 10 mL/kg each.
Operation: rats were dosed by intragastric infusion with the compounds. […] The heparinized sample tubes were then stored at −20° C., and the rats were allowed to eat food 2 h after the dosage.
Determination of contents of the compounds to be tested in the plasma of rats after intragastric infusion of the drugs at different concentrations: the plasma samples were thawed at room temperature, 50 μL each was taken and added into 130 μL of an internal standard working solution (1000 ng/mL, acetonitrile, tolbutamide), and the mixture was whirled for about 1 min and then centrifugated at 4° C. and 13000 rpm for 10 min. 50 μL of the supernatant was taken and mixed with 100 μL of 50% acetonitrile water, and then introduced for LC/MS/MS analysis.

Structures are written as SMILES. Bounds are passed on as bounds.

The IC50 is the point on the concentration scale where inhibition reaches its midpoint. For orientation: EC50 means the midpoint of the concentration-response curve. High values mean weaker potency, low ones greater potency. Take `N#Cc1nn(-c2cc(Cl)c(Oc3n[nH]c(=O)c4ccccc34)c(Cl)c2)c(=O)[nH]c1=O` [Compound 2]: the “THRα/β selectivity (factor)” value in series [1] was more than 58.8. Also, the “liver fibrosis (histology)” value in series [2] (3 and 10 mpk) is recorded as “significantly reduced”. In series [2] (all doses tested), the “liver steatosis (histology)” value is given as “significantly reduced”, the “serum ALT” value is listed as “significantly reduced”, the serum total cholesterol entry was “significantly reduced” and the serum triglycerides entry was “significantly reduced”. Also, the “expression of genes associated with collagen extracellular matrix and hepatic stellate cell activation relative to NASH control” value in series [2] (liver RNAseq) is “reducing their expression levels”. For the same molecule, in series [2] (oral once a day, 28 days), the heart/brain weight result was “no effect”, the “liver inflammation (histology)” value is given as “trend in inflammation reduction”, the liver/brain weight entry is listed as “significantly reduced” and the total body weight result is listed as “no effect”. In addition, in series [3], the IC50 was more than 10 µM. For the same molecule, the EC50 in series [4] worked out at 3.98 µM. In addition, in series [5], the Curve area was found to be 24790 ± 3704 ng·h/mL, the “Peak blood drug concentration” value was 2007 ± 106 ng/mL and the Time to peak came out at 4.67 ± 1.15 h.
